The format of data set [1] is in vivo. Particulars: Syrian hamsters, sodium salt. As to the method:
ODBG-P-RVn in 0.1M sodium carbonate/bicarbonate buffer, pH 9.0, was administered to Syrian Hamsters by oral gavage every 12 hours for seven days. ODBG-P-RVn was present as the sodium salt.
FIG. 5A and FIG. 5B depict the seven day oral pharmacokinetics in Syrian hamsters. Syrian hamsters were given vehicle or ODBG-P-RVn by oral gavage every 12 hours for 7 days. Groups of 3 animals received vehicle or drug at doses of 16.9 and 13.2 mg/kg. Animals were weighed daily and monitored for clinical signs.
Analytical Methods: ODBG-P-RVn: Hamster plasma samples (10 μL) containing ODBG-P-RVn and K2EDTA as the anticoagulant were added to polypropylene tubes containing water (100 μL), internal standard solution (10 μL; 1,000 ng/mL of ODE-P-RVn in ACN:DMF (1:1, v/v)), and 10 μL of ACN:DMF (1:1, v/v). The solutions were mixed, then acidified with phosphoric acid, 85% w/v:water (1:19, v/v; 10 μL), mixed, then diluted with 200 μL of IPA, mixed, then diluted with 500 μL of water, and mixed. […] The ODBG-P-RVn extracts were analyzed using an Agilent 1200 HPLC system (Agilent, Santa Clara, CA) coupled to an API5500 mass analyzer (SCIEX, Foster City, CA). […]
The solutions were mixed and centrifuged at 16,000 g for five minutes. […] The GS-441524 extracts were analyzed using an Acquity UPLC system (Waters, Milford, MA) coupled to a G2-S QTof mass analyzer (Waters, Milford, MA). […]

A further data set has as its system VERO E6 cells. The experiment in a line: Example 4 generation of remdesivir triphosphate in Vero E6 cells (LC/MS/MS). Format: in vitro ADME, monkey. As to conditions: exposure to 1 micromolar drug, up to 48 hours. As to the method: In this example, Vero E6 cells were plated in 6 well plates at about 3.4×10^5 cells per well in 2 mL of media (DMEM, 10% FBS).
Cells were then incubated at 37° C. for 24 hours. Media was then aspirated and replaced with 2 ml of control media (fresh Dulbecco's Modified Eagle's Medium (DMEM), 10% FBS) or 2 mL of media with drug at a concentration of 1 μM. Cell were incubated with the various drugs for 48 hours. The media was aspirated, the cells rinsed twice with phosphate-buffered saline (PBS), trypsinized for 5 minutes with 1 mL ATV, triturated and removed to a 15 mL centrifuge tube, rinsed with 1 mL PBS, which was also then removed to the 15 mL centrifuge tube, and the cells were triturated again. Cells were counted in a Reichert hemocytometer using two 10 μL samples, and the number of cells in each sample was determined.
Cells were centrifuged at 1200 rpm for 10 minutes, diluent aspirated and the pellet resuspended in 250 μL of methanol/distilled water (70/30) and analyzed by LC/MS/MS. The results, which are depicted at FIG. 3, were in picomoles/10^6 cells and are the average of two or three determinations.

The test system of data set [2] is SARS-CoV-2. The experiment in a line: Example 6 SARS-CoV-2 infection assay in Huh7.5 cells (nucleocapsid immunofluorescence). Format: cell-based. Particulars: SARS CoV-2, Huh7.5 cells, MOI 0.1, 48 hours, percent infected cells.
The subject of data set [3] is SARS-CoV-2. In words: Example 6 SARS-CoV-2 infection assay in TMPRSS2-Vero cells (nucleocapsid immunofluorescence). Particulars: SARS CoV-2, TMPRSS2-Vero cells, MOI 0.01, 32 hours, percent infected cells. Format: cell-based.
The next data set concerns Human Coronavirus 229E. Format: cell-based. Particulars: HCoV-229E in MRC-5 cells, three days, CPE by MTT.
Data set [4] can be described thus: Example 2 cellular cytotoxicity in Vero E6 cells (MTT). Particulars: monkey.
The test system of data set [5] is SARS-CoV-2 isolate USA-WA1/2020. In words: Example 7 SARS-CoV-2 infection in Caco-2 cells (qRT-PCR). Format: cell-based.
The test system is the same in data set [6]. In words: Example 7 SARS-CoV-2 infection in Vero E6 cells (qRT-PCR). Format: cell-based. Particulars: Severe acute respiratory syndrome coronavirus 2, Vero C1008, SARS-CoV-2, Vero E6 cells, MOI 0.01, 48 hours. (Real-time PCR tracks product formation cycle by cycle.)
Data set [7] has the same test system. The experiment in a line: Example 7 SARS-CoV-2 infection in Huh7.5 cells (qRT-PCR). Format: cell-based.
The test system is the same in data set [8]. The experiment in a line: Example 7 SARS-CoV-2 infection in Calu-3 cells (qRT-PCR). Format: cell-based.
The test system is the same in data set [9]. The experiment in a line: Example 7 SARS-CoV-2 infection in PSC-human lung cells (qRT-PCR). Format: cell-based.
For data set [10], the system named is USA WA-01 strain of SARS CoV-2. The experiment in a line: Example 2 anti-coronavirus activity in Vero E6 cells (qPCR spike RNA). Format: cell-based. Particulars: Vero C1008, SARS CoV-2 USA WA-01, Vero E6 cells, MOI 0.1, 48 hours. As to the method:
Ten thousand Vero E6 cells were seeded in 100 microliters of culture medium in 96 well plates. The following day serial two-fold dilutions of antiviral compounds or the DMSO-containing vehicle were added to each well. The USA WA-01 strain of SARS CoV-2 was added to each well at a multiplicity of infection of 0.1 thirty minutes later. Cells were incubated for 48 hours, washed twice in PBS and lysed with TRIzol. RNA was extracted using Directzol micro RNA columns. RNA was made into cDNA and assayed for the SARS CoV-2 spike protein and for a housekeeping gene (RPLPO) RNA by qPCR. Data represents the average of duplicate wells. Cellular cytotoxicity was also measured in VERO E6 cells. […] Cytotoxicity (CC50) was assessed using a commercially available MTT assay.

Data set [11] has as its system SARS-CoV-2 isolate USA-WA1/2020. In words: Example 3 SARS-CoV-2 infection in Vero E6 cells (qRT-PCR Spike RNA). Format: cell-based.
[12] abbreviates: Severe acute respiratory syndrome coronavirus 2, SARS-CoV-2, Huh7.5 cells, MOI 0.01, 48 hours, qRT-PCR, Example 7.
Setting [13] is: Severe acute respiratory syndrome coronavirus 2, SARS-CoV-2, Calu-3 cells, MOI 0.01, 48 hours.
Setting [14] is: Severe acute respiratory syndrome coronavirus 2, Vero C1008, SARS-CoV-2 USA-WA1/2020, Vero E6 cells, MOI 0.01, 48 hours, mean±SD.

This note sets out measurements from patent publication US12173029B2, “Antiviral prodrugs, pharmaceutical formulations, and methods” (priority 2020, dated 2024).

A word on the EC50: it is the concentration giving half of the maximal effect. For orientation: EC90 means the concentration at which the effect reaches the 90% level. As usually defined, the CC50 is the concentration giving 50% cytotoxicity.

Consider `CCCCCCCCCCCCCCCCCCOC[C@H](COP(=O)(O)OC[C@H]1O[C@@](C#N)(c2ccc3c(N)ncnn23)[C@H](O)[C@@H]1O)OCc1ccccc1` [Compound 15d, 1-O-octadecyl-2-O-benzyl-glyceryl-sn-3-phospho-RVn], for which, in data set [1] (oral gavage every 12 hours for seven days, 16.9 and 13.2 mg/kg), the “tolerability / clinical signs” value is “well tolerated, and no adverse clinical signs were noted”. The “time for plasma levels to fall by 50%” value in [1] (oral gavage) is “about 5 hours”. In the data set with VERO E6 cells, the “synthesis of remdesivir triphosphate (RVn-TP)” value is “increased progressively to 48 hours”.

With “1-O-octadecyl-2-O-benzyl-sn-glycerol-benzyl-phospho-RVn [Compound 16]”, the EC50 with SARS-CoV-2 [2] stood at 3540 ± 583 nM; in the data set on SARS-CoV-2 [3], 7440 ± 818 nM; with Human Coronavirus 229E it was 1500 ± 930 nM. The EC90 in the data set on SARS-CoV-2 [2] came out at 16400 ± 5980 nM; in the data set with SARS-CoV-2 [3] it was 15300 ± 5910 nM; in the data set on Human Coronavirus 229E it was 4270 ± 880 nM.

Regarding `N#C[C@@]1(c2ccc3c(N)ncnn23)O[C@H](CO)[C@@H](O)[C@H]1O` [RVn, 2-C-(4-aminopyrrolo[2,1-f][1,2,4]triazin-7-yl)-2,5-anhydro-D-altrononitrile], in data set [4], the CC50 is above 50000 nM. Also, the Selectivity in data set [5] (Selectivity index CC50/EC50, Caco-2 cells) was above 104; in data set [7] (Selectivity index CC50/EC50, Huh7.5 cells) it was above 312; in [8] (Selectivity index CC50/EC50, Calu-3 cells), above 666; in data set [9] (Selectivity index CC50/EC50, PSC-human lung cells), above 135; in data set [11] (Selectivity index, CC50/EC50, Vero E6 cells, Example 3) it was above 58.8. Further, the EC50 in data set [5] (Severe acute respiratory syndrome coronavirus 2, SARS-CoV-2, Caco-2 cells, MOI 0.01, 48 hours) was found to be 960 nM; in data set [6], 380 nM; in data set [7] (setting [12]), 320 nM; in [8] (setting [13]), 150 nM; in data set [9] (Severe acute respiratory syndrome coronavirus 2, SARS-CoV-2, PSC-human lung cells, MOI 0.01, 48 hours), 740 nM; in data set [10] it was 1560 nM. For the same molecule, a half-maximal effect in [11] (setting [14]) (EC50) was put at 1700 nM. The EC90 in data set [6] was determined as 770 nM; in [7] (setting [12]), 730 nM; in data set [8] (setting [13]) it was 180 nM; in [10], 2690 nM; in [11] (setting [14]) it was 3200 ± 770 nM.
